Biological target: Melatonin receptor (Gallus gallus, UniProt P49288+P51050+P49285)
Assay: In vitro binding affinity against melatonin receptor using 2-[125I]iodomelatonin (0.05 nM) and chicken brain membranes
Parameters: species or system Membrane

Q: Which Ki does the source give for COc1cc2ccccc2c2c1CC(NC(C)=O)CC2 (stereo not drawn) here?
A: Its Ki is 168 nM.

Q: How did the Ki turn out when CC(=O)NCCc1c[nH]c2ccc(O)cc12 [ACETYLSEROTONIN] was run?
A: Its Ki is 1640 nM.

Q: CC(=O)NC1Cc2cccc3cccc(c23)C1 was tested. Which Ki did it give?
A: The Ki was 195 nM.

Q: For COc1ccc2cccc3c2c1CC(NC(C)=O)C3 (stereo not drawn), which Ki is on record?
A: The Ki was 28.7 nM.

Q: For COc1ccc2ccc(O)c3c2c1CC(NC(C)=O)C3 (stereo not drawn), which Ki is on record?
A: Its Ki is 22.8 nM.

Q: How did the Ki turn out when CCC(=O)NC1Cc2cccc3ccc(OC)c(c23)C1 (stereo not drawn) was run?
A: The Ki was 6 nM.

Q: COc1c2c(cc3ccccc13)CCC(NC(C)=O)C2 (stereo not drawn) was tested. Which Ki did it give?
A: The Ki was 273 nM.

Q: Which Ki does the source give for COc1ccc2ccc(OC)c3c2c1CC(NC(C)=O)C3 here?
A: The Ki was 0.7 nM.

Reference: ChEMBL document CHEMBL1129259 (J Med Chem, 1996)
